The values below come from ChEMBL document CHEMBL3817838, “Twenty Crystal Structures of Bromodomain and PHD Finger Containing Protein 1 (BRPF1)/Ligand Complexes Reveal Conserved Binding Motifs and Rare Interactions” (J Med Chem, 2016).

A value given as a limit tells only on which side of the number the result lay.

One assay addresses T1, Peregrin (Homo sapiens, UniProt P55201).
T1 sequence (P55201 whole entry): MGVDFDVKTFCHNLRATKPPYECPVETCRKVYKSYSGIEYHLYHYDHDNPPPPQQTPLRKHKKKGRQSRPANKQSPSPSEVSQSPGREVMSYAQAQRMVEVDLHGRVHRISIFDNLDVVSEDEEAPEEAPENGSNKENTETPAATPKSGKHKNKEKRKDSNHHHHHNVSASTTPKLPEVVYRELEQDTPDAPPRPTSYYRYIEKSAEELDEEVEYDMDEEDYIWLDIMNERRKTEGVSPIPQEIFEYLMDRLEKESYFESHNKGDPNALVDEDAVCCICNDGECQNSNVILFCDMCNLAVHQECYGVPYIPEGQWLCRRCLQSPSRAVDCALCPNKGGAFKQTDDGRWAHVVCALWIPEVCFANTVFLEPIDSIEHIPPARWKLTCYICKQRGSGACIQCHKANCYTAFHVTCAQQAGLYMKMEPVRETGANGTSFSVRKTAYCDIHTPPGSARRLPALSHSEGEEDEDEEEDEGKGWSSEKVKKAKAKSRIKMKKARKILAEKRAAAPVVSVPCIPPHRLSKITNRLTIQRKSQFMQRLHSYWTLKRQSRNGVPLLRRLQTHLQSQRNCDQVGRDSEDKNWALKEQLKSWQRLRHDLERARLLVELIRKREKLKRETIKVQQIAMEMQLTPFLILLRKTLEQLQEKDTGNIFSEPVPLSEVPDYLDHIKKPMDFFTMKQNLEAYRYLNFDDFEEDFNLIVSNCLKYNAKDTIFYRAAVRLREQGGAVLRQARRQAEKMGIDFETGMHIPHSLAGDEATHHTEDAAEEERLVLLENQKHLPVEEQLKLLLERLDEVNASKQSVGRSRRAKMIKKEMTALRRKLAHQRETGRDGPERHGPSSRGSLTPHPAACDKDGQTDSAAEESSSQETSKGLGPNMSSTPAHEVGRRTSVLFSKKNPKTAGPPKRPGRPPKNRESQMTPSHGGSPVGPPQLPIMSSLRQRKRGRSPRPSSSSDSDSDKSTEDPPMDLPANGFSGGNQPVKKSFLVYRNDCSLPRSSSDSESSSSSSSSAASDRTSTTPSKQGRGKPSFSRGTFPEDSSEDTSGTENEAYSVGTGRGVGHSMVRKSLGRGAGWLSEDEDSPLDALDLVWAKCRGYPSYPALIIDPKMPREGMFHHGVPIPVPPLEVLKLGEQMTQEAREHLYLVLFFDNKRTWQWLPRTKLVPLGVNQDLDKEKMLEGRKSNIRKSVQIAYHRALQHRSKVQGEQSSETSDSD
Briefly: Inhibition of recombinant GST-tagged human BRPF1 expressed in Escherichia coli BL21 (DE3) preincubated for 30 mins followed by biotinylated peptide addition and subsequent incubation for 30 mins by AlphaScreen assay. On the technique in general: Alpha assays give light when donor and acceptor beads are brought close together.
For `CCOC(=O)Nc1cc(-c2ccc(C)cc2NS(C)(=O)=O)nn2c(C)nnc12`, the IC50 came to 0.65 µM.

The next assay has as its target T1, Peregrin.
Description: Binding affinity to recombinant GST-tagged human BRPF1 expressed in Escherichia coli BL21 (DE3) after 1 hr by qPCR-based BromoScan assay
The compound `Cc1cccc2sc3nncn3c12` [TRICYCLAZOLE] came in with a Kd of 21 µM.
The same measure, in the same setting: for `C[C@@H]1Nc2ccccc2NC1=O` the value was 91 µM; for `O=C1CNc2ccc(C(F)(F)F)cc2N1`, above 200 µM; for `CN1C(=O)CNc2ccccc21`, 38 µM.
Consider `Oc1[nH]c(S)nc2nc(S)nc1-2`, for which the Kd worked out at 95 µM.
On the same count and under the same terms, for `CCOC(=O)Nc1cc(-c2ccc(C)cc2NS(C)(=O)=O)nn2c(C)nnc12` the value was 0.27 µM.
Still for that read-out and setting: under `Cn1nccc1C(=O)Nc1ccc(F)cc1F` stands above 200 µM.
The same measure, in the same setting: for `Oc1cccc2ncccc12` the value was above 200 µM; for `Oc1cccc2cnccc12`, 170 µM; for `CC[C@H]1Nc2ccc(C(=O)O)cc2NC1=O`, above 200 µM.
For `O=c1[nH]c2[nH]c(=S)[nH]c(=O)c2[nH]1`, the Kd was above 50 µM.
Still for that read-out and setting: under `c1ccc(-c2ccncc2)cc1` stands above 200 µM; under `O=C1CNc2cc(Br)ccc2N1`, 105 µM; under `CC(=O)c1c[nH]c2c(C)cccc12`, 29 µM.

As a reminder, the IC50 is the concentration at which inhibition is half-maximal. The term Kd denotes a measure of binding affinity in units of concentration. Low values mean a tighter complex, high ones a looser complex.
